US20070092444A1, “Inhibition of inward sodium currents in cancer” (priority 2003, published 2007)

Key:
[1] = system: U87-MG cells; assay: Cell growth in culture; type: cell-based, human; details: 80 nM PcTX1
[2] = system: primary human astrocytes; assay: Transwell Migration Assay, primary human astrocytes; type: cell-based
Description: Approximately 10,000 cells were added to the upper side of a filter insert perforated with 5-8 μm holes, and induced to migrate through these pores toward the extracellular matrix protein vitronectin (coated on the underside of the filter). PcTX1 or control scrambled PcTX1 peptide was added to each compartment at the same time as the cells. BSA-coated filter inserts were used as negative controls. After 3 h, cells were fixed with 4% paraformaldehyde, and subsequently stained with crystal violet. Cells were counted on an inverted microscope, averaging five fields per Transwell chamber. Four-to-ten chambers were used under each condition.

[3] = system: D54-MG glioma cells; assay: Transwell Migration Assay, D54-MG cells; type: cell-based, human; details: 3 h, vitronectin
Description: 5-8 μm polycarbonate Transwell filters were coated on the lower surface with or vitronectin ([…] in PBS). […] of D54MG cells (400,000 cells/ml were added to the upper chamber), in the presence or absence of benzamil, and migration was allowed to proceed for 3 hours. Migration was determined according to standard procedures (120). N-amidino-3,5-diamino-pyrazinecarboxamide was used as a control.
To begin to investigate the role of the inward Na^+ conductance in the invasive behavior of tumor cells, a Transwell Migration Assay was used to assess cell chemotaxis and invasiveness (FIG. 17). D54-MG cells were plated on the upper side of a filter insert perforated with 5-8 μm holes, and induced to migrate through these pores toward the extracellular matrix protein vitronectin (coated on the underside of the filter). Benzamil, at 10, 20, 50, or 100 μM, was added to both chambers at time 0. After a 3 h migration time, cells were fixed, stained with crystal violet, and counted. BSA-coated filter inserts were used as negative controls. […]
Approximately 10,000 cells were added to the upper side of a filter insert perforated with 5-8 μm holes, and induced to migrate through these pores toward the extracellular matrix protein vitronectin (coated on the underside of the filter). […] Cells were counted on an inverted microscope, averaging five fields per Transwell chamber. […]

[4] = system: U251-MG brain tumors; assay: Intracranial U251-MG xenograft in SCID mice; type: in vivo
Description: After sacrifice, brain tissue was removed, embedded with paraffin and sectioned (10 μm thick). Sections were stained using hemotoxylin and eosin. Magnifications are 1×, 4× and 20× as indicated.
In these studies, 10^6 U251-MG cells were injected directly into the right hemisphere of thirty SCID mice (FIGS. 27A-C). […] On sacrifice of the animals, the brain of each mouse was sectioned and stained with hemotoxylin and eosin. Do to the nature of the study, no difference in survival between the three groups was noted.

[5] = target: T1, ASIC2 (Homo sapiens, UniProt Q16515); assay: ASIC2 in planar lipid bilayers; type: biochemical
T1 sequence (Q16515 1-512): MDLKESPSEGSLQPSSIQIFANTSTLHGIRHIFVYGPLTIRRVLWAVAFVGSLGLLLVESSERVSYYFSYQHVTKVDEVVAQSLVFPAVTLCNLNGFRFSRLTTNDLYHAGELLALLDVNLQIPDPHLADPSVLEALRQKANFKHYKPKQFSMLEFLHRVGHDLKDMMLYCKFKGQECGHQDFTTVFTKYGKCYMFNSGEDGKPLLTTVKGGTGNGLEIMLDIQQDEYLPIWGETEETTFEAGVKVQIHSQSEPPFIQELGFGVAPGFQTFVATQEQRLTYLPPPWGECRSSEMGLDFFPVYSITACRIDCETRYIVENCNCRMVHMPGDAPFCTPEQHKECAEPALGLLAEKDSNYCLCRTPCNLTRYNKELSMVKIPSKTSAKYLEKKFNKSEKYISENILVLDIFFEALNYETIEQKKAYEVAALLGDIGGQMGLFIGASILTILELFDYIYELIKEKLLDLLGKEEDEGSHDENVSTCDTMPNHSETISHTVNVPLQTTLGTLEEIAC
Source text: (§1) Membrane potential was held at −60 mV, and the pHo was step decreased to 4.0 for 10 s, and then returned to 7.4 for 30 s before repeating the sequence.

[6] = system: ASIC containing channel activity in U87-MG cells; assay: Single channel recording, outside-out patches from U87-MG cells; type: cell-based, human; details: 100 μM amiloride
Description: FIGS. 23A and B show single channel records of ASIC-containing channel activity in cell attached (FIG. 23A) and outside-out patches (FIG. 23B) from U87-MG cells.
Single channel recording of ASIC containing channel activity in both cell-attached and outside-out patches from U-87MG cells are shown in FIGS. 23A and B, respectively. For cell-attached patches, the pipette solution contained RPMI 1640, matching the external bath solution used for all whole-cell clamped records. For outside-out patches the pipette solution contained (in mM) K-gluconate, 100; KCl, 30; NaCl, 10; HEPES, 20; EGTA, 0.5; ATP, 4; pH 7.2. Membrane potentials for cell-attached patches were determined as the applied potential plus the membrane potential of the cell that was measured in the whole-cell configuration as −60 mV using the pipette solution for outside-out patches. The membrane potential for outside-out patches was the equilibrium potential for sodium plus the applied potential. The average single channel conductance in the cell-attached configuration was 5.7±0.5 pS. This average conductance was calculated from each of the clamp potentials. This was compatible with the observed whole-cell currents. The kinetics of channel opening and closing were relatively slow (on the order of 0.1 to 1 s), consistent to what has been observed for ASIC-like channels in bilayers (FIG. 23A).

[7] = target: T2, combination of ASIC1 and ASIC2 (Homo sapiens, UniProt P78348+Q16515); assay: Acid-activated currents in voltage-clamped Xenopus oocytes expressing ASIC1 and ASIC2; type: cell-based; details: 400 μM amiloride; pHo 4.0; −60 mV
T2 construct: expressed in transfected cells; host or cells: Xenopus oocytes (cRNA injection)
T2 sequence (P78348 whole entry, one chain of several): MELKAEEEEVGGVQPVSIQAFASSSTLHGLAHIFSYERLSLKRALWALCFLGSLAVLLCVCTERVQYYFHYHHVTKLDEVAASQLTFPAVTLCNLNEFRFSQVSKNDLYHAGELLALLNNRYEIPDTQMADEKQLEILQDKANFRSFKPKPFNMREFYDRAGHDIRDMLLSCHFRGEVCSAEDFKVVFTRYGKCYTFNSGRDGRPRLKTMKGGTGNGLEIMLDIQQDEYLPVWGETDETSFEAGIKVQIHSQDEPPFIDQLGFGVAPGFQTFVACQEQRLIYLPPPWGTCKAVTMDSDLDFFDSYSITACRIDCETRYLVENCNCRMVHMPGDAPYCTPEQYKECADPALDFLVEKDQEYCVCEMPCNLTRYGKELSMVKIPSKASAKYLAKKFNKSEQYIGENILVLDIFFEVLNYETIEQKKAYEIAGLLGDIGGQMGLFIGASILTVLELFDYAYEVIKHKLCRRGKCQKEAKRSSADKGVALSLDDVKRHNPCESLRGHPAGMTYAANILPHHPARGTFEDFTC
Source text: FIGS. 8A-C show acid-activated ASIC currents in Xenopus oocytes. ASIC 2 (FIG. 8A), ASIC1 (FIG. 8B) and the combination of ASIC2 and ASIC1 (FIG. 8C) were examined. […] Each oocyte served as its own control.
as §1
Xenopus oocytes were used to express ASIC1 and ASIC2 mRNA individually and in combination. Oocyte preparation, cRNA injection, and two-electrode voltage clamp recordings were performed as described (33,67-69).
as §1

Compound	growth of cells in culture [1]	effect on Transwell migration [2]	diminished ability to migrate through the filter [3] [%]	survival ([4]; between the three groups)	tumor foci within the injected hemisphere ([4]; injection once a week for three weeks)	tumor margins ([4]; injection once a week for three weeks, 20× the in vitro inhibitory dose, versus saline or scrambled peptide)	block of inward currents [5]	inhibition of channels [6]	inhibition of acid-activated currents [7]
Psalmotoxin 1 [PcTX1]	significantly inhibited	no effect	> 90	no difference	one	more clearly delineated	not ASIC2		
N=C(N)NC(=O)c1nc(Cl)c(N)nc1N [amiloride]								completely inhibited	inhibited
